Experimental data as given in patent US8063008B2, “Enzymatic production of peracids using perhydrolytic enzymes” (E. I. du Pont de Nemours and Company, priority 2005, dated 2011).

What was measured:
Type in all cases: biochemical
[1] = Protease-catalyzed perhydrolysis of diacetamide at pH 4.0 (Example 6); conditions: pH 4.0, 500 mM H2O2, 1 mg protease
Method: (§1) Into a 4-mL glass vial with stir bar was added 1 mg protease (Table 6) in 0.050 mL of 50 mM sodium acetate/acetic acid buffer (pH 4.0), 0.900 mL of an aqueous mixture containing either a) acetamide (278 mM) in 50 mM sodium acetate/acetic acid buffer (pH 4.0) or b) diacetamide (278 mM) in 50 mM sodium acetate/acetic acid buffer (pH 4.0), and 0.052 mL 30% hydrogen peroxide (500 mM final concentration). […] A portion of the filtered reaction samples was diluted 1:10 with dd water and analyzed for hydrogen peroxide, and the remaining portion of the sample was directly analyzed for peracid using the HPLC assay method (Table 7).

[2] = Protease-catalyzed perhydrolysis of triacetin at pH 6.5 (Example 8); conditions: pH 6.5, 500 mM H2O2, 1 mg protease
Method: The analytical procedure described by U. Karst et al. (Anal. Chem., 69 (17):3623-3627 (1997)) was employed, as described herein, for analysis of product mixtures containing peracid and hydrogen peroxide. Briefly, the concentration of peracetic acid (PAA) in analyzed samples ranged from 0.025 mM-10 mM, and the concentration of H2O2 ranged from 0.075 mM-3 mM. Reaction mixtures containing peracid and/or hydrogen peroxide were, if necessary prior to analysis, diluted to produce a concentration of peracid or peroxide in these ranges. Into a 4-mL vial was placed 0.100 mL of 20 mM methyl p-tolyl sulfide (MTS) in acetonitrile, 0.300 mL of distilled and deionized water (dd) and 0.100 mL of sample solution (undiluted or diluted with dd water by a factor of up to 1:25 for analysis of peracid), or 0.100 mL of 20 mM MTS in acetonitrile and 0.390 mL of dd water were added to 0.010 mL of a 1:10 dilution of sample solution (for analysis of hydrogen peroxide). After a reaction time of 10 minutes (in the dark, with no stirring), 0.400 mL CH3CN and 0.100 mL of 40-mM triphenylphosphine (TPP) in CH3CN were added to start the second derivatization reaction for detection of peroxide. The solution was left standing in the dark for 30 min to complete the assay reaction. At the end of 30 minutes, 0.100 mL of 10 mM N,N-diethyl-m-toluamide (DEET, HPLC external standard) was added and the resulting solution analyzed by HPLC: Supelco Discovery C8 10-cm column with pre-column, 10-μL injection, UV detection at 225 nm, solvent A: acetonitrile, solvent B: deionized water, 1 mL/min gradient as follows: […]
Into a 4-mL glass vial with stir bar was added 1 mg protease (Table 6) in 0.050 mL of 50 mM sodium phosphate buffer (pH 6.5), 0.900 mL of an aqueous mixture containing triacetin (278 mM) in 50 mM phosphate buffer (pH 6.5), and 0.052 mL 30% hydrogen peroxide (500 mM final concentration). After stirring for 5 or 30 minutes at 22° C., a 0.250 mL sample was filtered using a 30,000 NMWL filter (Millipore UltraFree-MC) centrifuged for 2 minute at 12,000 RPM. A portion of the filtered reaction samples was diluted 1:10 with dd water and analyzed for hydrogen peroxide, and the remaining portion of the sample was directly analyzed for peracid using the HPLC assay method (Table 9).

[3] = Protease-catalyzed perhydrolysis of triacetin at pH 4.0 (Example 7); conditions: pH 4.0, 500 mM H2O2, 1 mg protease
Method: Into a 4-mL glass vial with stir bar was added 1 mg protease (Table 6) in 0.050 mL of 50 mM sodium acetate/acetic acid buffer (pH 4.0), 0.900 mL of an aqueous mixture containing triacetin (278 mM) in 50 mM sodium acetate/acetic acid buffer (pH 4.0), and 0.052 mL 30% hydrogen peroxide (500 mM final concentration). […] A portion of the filtered reaction samples was diluted 1:10 with dd water and analyzed for hydrogen peroxide, and the remaining portion of the sample was directly analyzed for peracid using the HPLC assay method (Table 8).

[4] = Protease-catalyzed perhydrolysis of diacetamide at pH 6.5 (Example 9); conditions: pH 6.5, 500 mM H2O2, 1 mg protease
Method: as §1, with “potassium phosphate” for “sodium acetate/acetic acid”, “6.5),” for “4.0),”, “6.5)” for “4.0)”, “10).” for “7).”

[5] = Protease-catalyzed perhydrolysis of acetamide at pH 6.5 (Example 9); conditions: pH 6.5, 500 mM H2O2, 1 mg protease
Method: as §1, with “potassium phosphate” for “sodium acetate/acetic acid”, “6.5),” for “4.0),”, “6.5)” for “4.0)”, “10).” for “7).”

[6] = Protease-catalyzed perhydrolysis of acetamide at pH 4.0 (Example 6); conditions: pH 4.0, 500 mM H2O2, 1 mg protease
Method: as §1

[7] = Enzymatic perhydrolysis of a mixture of diacetin (250 mM), triacetin (88 mM) and monoacetin (192 mM) using lipase and Neutrase at pH 4.0 and 6.5 (Example 25); conditions: monoacetin 192 mM, H2O2 500 mM, 22° C.
Method: Reaction mixtures were prepared containing 1 mg lipase (A “Amano” 12 (Amano), Validase AN (Valley Research), or ICR-110 (BioCatalytics)), and 20 μL Neutrase® (Novozymes) in 1.0 mL of 50 mM buffer (either sodium acetate/acetic acid buffer at pH 4.0, or potassium phosphate buffer at pH 6.5), additionally containing a mixture of diacetin (250 mM), triacetin (88 mM) and monoacetin (192 mM) and hydrogen peroxide (500 mM). After stirring for 5 or 30 minutes at 22° C., a 0.250-mL sample was filtered using a 30,000 NMWL filter (Millipore UltraFree-MC) centrifuged for 2 minutes at 12,000 RPM. A portion of the filtered reaction samples was diluted 1:10 with dd water and analyzed for hydrogen peroxide, and the remaining portion of the sample was directly analyzed for peracid using the HPLC assay method (Table 30). Reactions were also run with lipase alone or Neutrase® alone for comparison of peracetic acid concentrations produced without the combination of lipase and Neutrase®.

[8] = Enzymatic perhydrolysis of triacetin using a combination of lipase and Neutrase at pH 4.0 and 6.5 (Example 24); conditions: triacetin 250 mM, H2O2 500 mM, 22° C.
Method: Reaction mixtures were prepared containing 1 mg lipase (A “Amano” 12 (Amano), Validase AN (Valley Research), or ICR-110 (BioCatalytics)), and 20 μL Neutrase® (Novozymes) in 1.0 mL of 50 mM buffer (either sodium acetate/acetic acid buffer at pH 4.0, or potassium phosphate buffer at pH 6.5), additionally containing triacetin (250 mM) and hydrogen peroxide (500 mM). […] A portion of the filtered reaction samples was diluted 1:10 with dd water and analyzed for hydrogen peroxide, and the remaining portion of the sample was directly analyzed for peracid using the HPLC assay method (Table 29). Reactions were also run with lipase alone or Neutrase® alone for comparison of peracetic acid concentrations produced without the combination of lipase and Neutrase®.

| Substance | diacetamide (250 mM) peracetic acid (ppm), 5 min [1] | diacetamide (250 mM) peracetic acid (ppm), 30 min [1] | triacetin (250 mM) peracetic acid (ppm), 5 min [2] | triacetin (250 mM) peracetic acid (ppm), 30 min [2] | triacetin (250 mM) peracetic acid (ppm), 5 min [3] | triacetin (250 mM) peracetic acid (ppm), 30 min [3] | diacetamide (250 mM) peracetic acid (ppm), 5 min [4] | diacetamide (250 mM) peracetic acid (ppm), 30 min [4] | acetamide (250 mM) peracetic acid (ppm), 5 min [5] | acetamide (250 mM) peracetic acid (ppm), 30 min [5] | acetamide (250 mM) peracetic acid (ppm), 5 min [6] | acetamide (250 mM) peracetic acid (ppm), 30 min [6] | peracetic acid (ppm), 5 min ([7]; pH 4.0, 5 min) | peracetic acid (ppm), 30 min ([7]; pH 4.0, 30 min) | peracetic acid (ppm), 5 min ([7]; pH 6.5, 5 min) | peracetic acid (ppm), 30 min ([7]; pH 6.5, 30 min) | peracetic acid (ppm), 5 min ([8]; pH 4.0) | peracetic acid (ppm), 30 min ([8]; pH 4.0) | peracetic acid (ppm), 5 min ([8]; pH 6.5) | peracetic acid (ppm), 30 min ([8]; pH 6.5) |
| --- | --- | --- | --- | --- | --- | --- | --- | --- | --- | --- | --- | --- | --- | --- | --- | --- | --- | --- | --- | --- |
| Bromelain | 92 ppm | 130 ppm | 161 ppm | 170 ppm | 83 ppm | 59 ppm | 311 ppm | 202 ppm | 108 ppm | 112 ppm | 57 ppm | 63 ppm |  |  |  |  |  |  |  |  |
| Chymopapain: Chymopapain, papaya latex, Sigma C8526 | 100 ppm | 131 ppm | 69 ppm | 167 ppm | 72 ppm | 57 ppm | 218 ppm | 170 ppm | 94 ppm | 12 ppm | 66 ppm | 65 ppm |  |  |  |  |  |  |  |  |
| Neutrase ®: Novozymes; a neutral protease from Bacillus amyloliquefaciens |  |  |  |  |  |  |  |  |  |  |  |  | 50 ppm | 110 ppm | 50 ppm | 110 ppm | 0 ppm | 0 ppm | 110 ppm | 300 ppm |
| Pepsin | 97 ppm | 120 ppm | 111 ppm | 163 ppm | 65 ppm | 44 ppm | 259 ppm | 198 ppm | 81 ppm | 67 ppm | 45 ppm | 65 ppm |  |  |  |  |  |  |  |  |
